What was measured:
[1] = target: T1, Type II 5α-Reductase from Human Prostate (Homo sapiens, UniProt P31213); assay: Human Type II 5α-reductase assay (conversion of [3H]-testosterone to 5α-reduced metabolites); type: biochemical; conditions: pH 5.5, 0.3 μM; sodium acetate pH 5.5, 25°, 30 min; compared to control reaction mixtures; read-out: percent inhibition of Type II AR
T1 construct: The same procedure as above was used for preparations using tissue from prostate surgery; from tissue; host or cells: human prostate tissue from surgery, homogenate, 100,000×g pellet
T1 sequence (P31213 1-254): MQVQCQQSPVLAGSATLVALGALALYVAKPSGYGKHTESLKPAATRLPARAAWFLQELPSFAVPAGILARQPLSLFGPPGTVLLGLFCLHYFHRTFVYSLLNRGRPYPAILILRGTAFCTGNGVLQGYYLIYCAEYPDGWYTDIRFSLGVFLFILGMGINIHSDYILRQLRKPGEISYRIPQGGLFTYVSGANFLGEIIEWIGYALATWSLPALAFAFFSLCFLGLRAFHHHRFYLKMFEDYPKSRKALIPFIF

[2] = target: T2, Type I 5α-Reductase from Human Scalp (Homo sapiens, UniProt P18405); assay: Human Type I 5α-reductase assay (conversion of [3H]-testosterone to 5α-reduced metabolites); type: biochemical; conditions: pH 7.5, 0.3 μM; 50 nM [3H]-testosterone, pH 7.5, 25°, 180 min; compared to control reaction mixtures; read-out: percent inhibition of Type I AR
T2 construct: Scalp punch biopsies from graft recipient sites were obtained from human hair transplant procedures; from tissue; host or cells: human scalp punch biopsies (hair transplant graft recipient sites), homogenate, 100,000×g pellet
T2 sequence (P18405 1-259): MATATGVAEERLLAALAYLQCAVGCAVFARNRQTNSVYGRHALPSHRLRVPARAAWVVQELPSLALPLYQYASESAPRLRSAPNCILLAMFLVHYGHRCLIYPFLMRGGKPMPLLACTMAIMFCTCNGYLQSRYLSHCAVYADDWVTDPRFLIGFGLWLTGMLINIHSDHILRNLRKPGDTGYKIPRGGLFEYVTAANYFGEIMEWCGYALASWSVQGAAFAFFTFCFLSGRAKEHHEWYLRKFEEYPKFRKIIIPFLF

| SMILES | inhibition at 0.3 µM [1] | inhibition at 0.3 µM [2] |
| --- | --- | --- |
| CN1C(=O)CC[C@]2(C)c3ccc(-c4ccc(Cl)c(F)c4)cc3CC[C@@H]12 [Example 219, (+)-(4aR)-(10bR)-4-methyl-8-(4-chloro-3-fluorophenyl)-10b-methyl-1,2,3,4,4a,5,6,10b-octahydrobenzo[f]quinolin-3-one] | 30% | 91% |
| CN1C(=O)CC[C@]2(C)c3ccc(-c4ccc(S(N)(=O)=O)cc4)cc3CC[C@@H]12 [Example 220, (+)-(4aR)-(10bR)-4-methyl-8-(4-sulfonamidophenyl)-10b-methyl-1,2,3,4,4a,5,6,10b-octahydrobenzo[f]quinolin-3-one] | 26% | 67% |
| CN1C(=O)CC[C@]2(C)c3ccc(-c4ccc(C(=O)CCCCl)cc4)cc3CC[C@@H]12 [Example 221, (+)-(4aR)-(10bR)-4-methyl-8-[4-(4-chlorobutyryl)phenyl]-10b-methyl-1,2,3,4,4a,5,6,10b-octahydrobenzo[f]quinolin-3-one] | 26% | 95% |
| CN1C(=O)CC[C@]2(C)c3ccc(-c4ccc5c(c4)C(=O)C(=O)N5)cc3CC[C@@H]12 [Example 223, (+)-(4aR)-(10bR)-4-methyl-8-(2,3-dioxo-5-indolinyl)-10b-methyl-1,2,3,4,4a,5,6,10b-octahydrobenzo[f]quinolin-3-one] | 24% | 36% |
| CCCN(CCC)[C@@H]1Cc2cc(-c3ccc4c(c3)CC[C@H]3N(C)C(=O)CC[C@]43C)cc3c2[C@@H](C1)CN3C(=O)c1ccccc1 [Example 225, (+)-(4aR)-(10bR)-4-methyl-8-(2aR,4S-1-benzoyl-4-dipropylamino-2,2a,3,4-tetrahydrobenz[cd]-1H-indol-7-yl)-10b-methyl-1,2,3,4,4a,5,6,10b-octahydrobenzo[f]quinolin-3-one] | 32% | 47% |
| CN1C(=O)CC[C@]2(C)c3ccc(-c4cc5c6c(c4)N(C(=O)c4ccccc4)C[C@@H]6C[C@H](N)C5)cc3CC[C@@H]12 [Example 226, (+)-(4aR)-(10bR)-4-methyl-8-(2aR,4S-1-benzoyl-4-amino-2,2a,3,4-tetrahydrobenz[cd]-1H-indol-7-yl)-10b-methyl-1,2,3,4,4a,5,6,10b-octahydrobenzo[f]quinolin-3-one] | 8% | 16% |
| CN1C(=O)CC[C@]2(C)c3ccc(-c4cc(F)cc(F)c4)cc3CC[C@@H]12 [Example 227, (+)-(4aR)-(10bR)-4-methyl-8-(3,5-difluorophenyl)-10b-methyl-1,2,3,4,4a,5,6,10b-octahydrobenzo[f]quinolin-3-one] | 25% | 97% |
| CN1C(=O)CC[C@]2(C)c3ccc(-c4ccc(F)c(F)c4F)cc3CC[C@@H]12 [Example 232, (+)-(4aR)-(10bR)-4-methyl-8-(2,3,4-trifluorophenyl)-10b-methyl-1,2,3,4,4a,5,6,10b-octahydrobenzo[f]quinolin-3-one] | 27% | 94% |
| CN1C(=O)CC[C@]2(C)c3ccc(-c4ccc(SCc5ccc([N+](=O)[O-])cc5)cc4)cc3CC[C@@H]12 [Example 233, (+)-(4aR)-(10bR)-4-methyl-8-(4-[4-nitrobenzyl]thiophenyl)-10b-methyl-1,2,3,4,4a,5,6,10b-octahydrobenzo[f]quinolin-3-one] | 38% | 95% |
| CN1C(=O)CC[C@]2(C)c3ccc(-c4ccncc4)cc3CC[C@@H]12 [Example 235, (+)-(4aR)-(10bR)-4-methyl-8-(4-pyridinyl)-10b-methyl-1,2,3,4,4a,5,6,10b-octahydrobenzo[f]quinolin-3-one] | 12% | 28% |
| Cc1ccc(S(=O)(=O)n2ccc3cc(-c4ccc5c(c4)CC[C@H]4N(C)C(=O)CC[C@]54C)ccc32)cc1 [Example 236, (+)-(4aR)-(10bR)-4-methyl-8-(1-p-toluenesulfonylindol-5-yl)-10b-methyl-1,2,3,4,4a,5,6,10b-octahydrobenzo[f]quinolin-3-one] | 67% | 84% |
| CC(=O)N1CCc2cc(-c3ccc4c(c3)CC[C@H]3N(C)C(=O)CC[C@]43C)ccc21 [Example 238, (+)-(4aR)-(10bR)-4-methyl-8-(1-acetylindolin-5-yl)-10b-methyl-1,2,3,4,4a,5,6,10b-octahydrobenzo[f]quinolin-3-one] | 29% | 72% |

The remaining lines, values ahead:

| inhibition at 0.3 µM [1] | inhibition at 0.3 µM [2] | SMILES |
| --- | --- | --- |
| 20% | 71% | CN(C)CCN1C(=O)c2cccc3c(-c4ccc5c(c4)CC[C@H]4N(C)C(=O)CC[C@]54C)ccc(c23)C1=O [Example 224, (+)-(4aR)-(10bR)-4-methyl-8-(2-(2-dimethylaminoethyl)-1H-benzo<de>isoquinolin-6-yl-1,3-(2H)dione)-10b-methyl-1,2,3,4,4a,5,6,10b-octahydrobenzo[f]quinolin-3-one] |
| 32% | 77% | CN1C(=O)CC[C@]2(C)c3ccc(-c4c(F)cccc4F)cc3CC[C@@H]12 [Example 228, (+)-(4aR)-(10bR)-4-methyl-8-(2,6-difluorophenyl)-10b-methyl-1,2,3,4,4a,5,6,10b-octahydrobenzo[f]quinolin-3-one] |
| 11% | 97% | CN1C(=O)CC[C@]2(C)c3ccc(-c4cc(F)ccc4F)cc3CC[C@@H]12 [Example 229, (+)-(4aR)-(10bR)-4-methyl-8-(2,5-difluorophenyl)-10b-methyl-1,2,3,4,4a,5,6,10b-octahydrobenzo[f]quinolin-3-one] |
| 29% | 86% | CN1C(=O)CC[C@]2(C)c3ccc(-c4c(F)cc(F)cc4F)cc3CC[C@@H]12 [Example 230, (+)-(4aR)-(10bR)-4-methyl-8-(2,4,6-trifluorophenyl)-10b-methyl-1,2,3,4,4a,5,6,10b-octahydrobenzo[f]quinolin-3-one] |
| 21% | 80% | CN1C(=O)CC[C@]2(C)c3ccc(-c4ccc(F)cc4F)cc3CC[C@@H]12 [Example 231, (+)-(4aR)-(10bR)-4-methyl-8-(2,4-difluorophenyl)-10b-methyl-1,2,3,4,4a,5,6,10b-octahydrobenzo[f]quinolin-3-one] |
| 30% | 83% | CN1C(=O)CC[C@]2(C)c3ccc(-c4ccc5c6c(cccc46)C(=O)N(CCN4CCOCC4)C5=O)cc3CC[C@@H]12 [Example 234, (+)-(4aR)-(10bR)-4-methyl-8-(2-(2-[1-morpholino]ethyl)-1H-benzo<de>isoquinolin-6-yl-1,3-(2H)dione)-10b-methyl-1,2,3,4,4a,5,6,10b-octahydrobenzo[f]quinolin-3-one] |
| 13% | 33% | CC(=O)N1CCc2cc(-c3ccc4c(c3)CC[C@H]3N(C)C(=O)CC[C@]43C)cc([N+](=O)[O-])c21 [Example 237, (+)-(4aR)-(10bR)-4-methyl-8-(1-acetyl-7-nitroindolin-5-yl)-10b-methyl-1,2,3,4,4a,5,6,10b-octahydrobenzo[f]quinolin-3-one] |
| 27% | 42% | CN1C(=O)CC[C@]2(C)c3ccc(-c4cccc5cccnc45)cc3CC[C@@H]12 [Example 239, (+)-(4aR)-(10bR)-4-methyl-8-(8-quinolinyl)-10b-methyl-1,2,3,4,4a,5,6,10b-octahydrobenzo[f]quinolin-3-one] |
